Test results as given in publication PMC5016780, “Development of a Cell-penetrating Peptide that Exhibits Responsive Changes in its Secondary Structure in the Cellular Environment” (Scientific Reports, 2016).
“Also recorded” adds a separate entry of the source. Non-standard residues stand in square brackets, D forms with d. Residues, ends and D or L forms follow the SMILES beside them. *: point of attachment. 5FAM = O=C1OC2(c3ccc(O)cc3Oc3cc(O)ccc32)c2ccc(C(=O)*)cc21; Pro(cis-4-guanidino) = NC(N)=N[C@@H]1CN[C@H](C(=O)O)C1; Pro(4S-NH2) = N[C@@H]1CN[C@H](C(=O)O)C1; βAla = NCCC(=O)O

Experiments:
HeLa cells [1] = experiment: Time course of cellular uptake (1–24 hr); type: cell-based; details: 37 °C, 1 μM peptide; for stability in culture medium / cellular environment, as concluded from the uptake time course: culture medium containing fetal bovine serum (FBS)
Experimental: The results of the cytotoxicity analysis, in which HeLa cells were treated with peptides 1–5 for 24 hr at concentrations of 1, 4, and 8 μM, are shown in Fig. S9. […] Next, we investigated the intracellular uptake pathways of R9 and peptide 3. In the presence of various endocytosis inhibitors (amiloride, a macropinocytosis inhibitor[37]; nystatin, a caveolae-mediated endocytosis inhibitor[38]; and sucrose, a clathrin-mediated endocytosis inhibitor[39]), the migration levels of R9 and 3 into the HeLa cells were compared (Fig. S10). […] Then, we investigated the intracellular localization and dynamic behavior of R9 and 3 using fluorescence microscopy. The cells’ late endosomes/lysosomes were stained with LysoTracker Red (red), and their nuclei were stained with Hoechst 33342 (blue). […] As a general approach, peptides that can change their helical structures in accordance with pH fluctuations are often used to promote escape from endosomes. […] We considered that peptide 3 might also directly penetrate the cell membrane more efficiently than R9 (R9 passes through the cell membrane via not only endocytosis but also non-endocytosis pathway, that is, direct permeation to the cell membrane)[44]. Therefore, we investigated the intracellular uptake of peptide 3 at low temperature using flow cytometry and fluorescence microscopy. At low temperature, energy-dependent pathways such as endocytosis are inhibited so it is possible to assess direct peptide penetration via energy-independent pathways. […] Peptides that can directly penetrate through the cell membrane can be used for efficient intracellular delivery as they are not affected by problems associated with the need to escape from endosomes.
Figure 5 (a) Cellular uptake of the peptides 1–5 and R9 after 1–24 hr (peptide concentration: 1 μM). Values are the means ± standard deviation of three independent cultures. (b,c) Peptide 3 and R9 were colocalized with lysosome marker. HeLa cells were treated with 10 μM peptides at 37 °C for 2 hr. The acidic late endosomes/lysosomes were stained with LysoTracker Red (red), and the nuclei were stained with Hoechst 33342 (blue). The scale bars represent 50 μm.
HeLa, A549, Jurkat and CHO-K1 cells were seeded in 6-well dishes at a density of 4.0 × 10^6 cells/well and cultured in DMEM (HeLa, A549), RPMI-1640 (Jurkat) and Ham’s F-12 (CHO-K1) for 24 hr, respectively. The cells were treated with each peptide (peptide concentration; 1 μM) and incubated for each time (1, 2, 4, 8, 16 and 24 hr). Then, the cells were washed three times with phosphate buffer (PBS) supplemented with heparin (20 units/mL) and detached by treatment of trypsin-EDTA. […] Then, the collected cells were suspended in 500 μL of PBS buffer and mean fluorescence intensity in cells was measured by flow cytometer. […]

[2] = Peptide stability in culture medium containing 10% FBS (pre-incubation uptake and LC-MS); type: in vitro ADME; details: 0–24 h at 37 °C, then 2 hr with HeLa cells at 37 °C (1 μM, flow cytometry), and LC-MS analysis, 1–24 hr in culture medium containing 10% FBS
Experimental: Figure S8. (a) Cellular uptake of the peptides 1-5 after 1-24 h pre-incubation (peptide concentration: 1 µM). Values are the means ± standard deviation of three independent Figure 5b. Cellular uptake of the peptides 1-5 LC-MS analsisys. the stability of the peptides (1-24 hr) after 1-24 hr pre-incubation. in culture media containing 10% FBS using LC-MS. cultures. (b) The peptides’ stability (1-24 hr) analysis in culture medium containing FBS using LCCytotoxicity-MS. […]

HeLa cells [3] = experiment: Uptake in the presence of endocytosis inhibitors; type: cell-based; details: amiloride 25 μM, sucrose 0.4 M or nystatin 25 μg/mL, 1 μM peptide, 1 hr, flow cytometry
Experimental: The results of the cytotoxicity analysis, in which HeLa cells were treated with peptides 1–5 for 24 hr at concentrations of 1, 4, and 8 μM, are shown in Fig. S9. […] Next, we investigated the intracellular uptake pathways of R9 and peptide 3. In the presence of various endocytosis inhibitors (amiloride, a macropinocytosis inhibitor[37]; nystatin, a caveolae-mediated endocytosis inhibitor[38]; and sucrose, a clathrin-mediated endocytosis inhibitor[39]), the migration levels of R9 and 3 into the HeLa cells were compared (Fig. S10). […] Then, we investigated the intracellular localization and dynamic behavior of R9 and 3 using fluorescence microscopy. The cells’ late endosomes/lysosomes were stained with LysoTracker Red (red), and their nuclei were stained with Hoechst 33342 (blue). […] Therefore, we investigated the intracellular uptake of peptide 3 at low temperature using flow cytometry and fluorescence microscopy. […]
The cells were seeded onto 6-well culture plates (400,000 cells/well) and incubated overnight in 2 mL of DMEM containing 10% FBS. […] Then, fluorescence intensity in the cells was measured as above. […] Statistical differences were analyzed by Student’s t-test. […]
Figure S11. Fluorescence microscopy images of HeLa cells that had been treated with […]

HeLa cells [4] = experiment: Intracellular localization by fluorescence microscopy (endosomal escape); type: cell-based; details: 10 μM peptide, 37 °C, 15 min–2 hr, LysoTracker Red and Hoechst 33342 staining
Experimental: The results of the cytotoxicity analysis, in which HeLa cells were treated with peptides 1–5 for 24 hr at concentrations of 1, 4, and 8 μM, are shown in Fig. S9. […] Next, we investigated the intracellular uptake pathways of R9 and peptide 3. In the presence of various endocytosis inhibitors (amiloride, a macropinocytosis inhibitor[37]; nystatin, a caveolae-mediated endocytosis inhibitor[38]; and sucrose, a clathrin-mediated endocytosis inhibitor[39]), the migration levels of R9 and 3 into the HeLa cells were compared (Fig. S10). […] Then, we investigated the intracellular localization and dynamic behavior of R9 and 3 using fluorescence microscopy. The cells’ late endosomes/lysosomes were stained with LysoTracker Red (red), and their nuclei were stained with Hoechst 33342 (blue). […] As a general approach, peptides that can change their helical structures in accordance with pH fluctuations are often used to promote escape from endosomes. […] Therefore, we investigated the intracellular uptake of peptide 3 at low temperature using flow cytometry and fluorescence microscopy. […]
Figure S11. Fluorescence microscopy images of HeLa cells that had been treated with 10 µM of peptides [(a) peptide 3, (b) R9, (c) peptide 2] for 15 min-2 hr at 37 °C. […]
Figure S12. Fluorescence microscopy images of HeLa cells that had been treated with 10 µM of peptides [(a) R9, (b) peptide 3, (c) peptide 2] for 2 hr at 37 °C. […]

stability in culture medium / cellular environment, as concluded from the uptake time course (HeLa cells [1])	Compound	cell-penetrating ability and stability after pre-incubation in medium (in words) [2]	effect of endocytosis inhibitors on uptake (in words) (HeLa cells [3])	endosomal escape / localization (in words) (HeLa cells [4])	cellular uptake over incubation time (in words) (HeLa cells [1]; medium containing FBS, flow cytometry, three independent cultures)
more stable than R9	N=C(N)NCCC[C@H](NC(=O)CCNC(=O)c1ccc2c(c1)C(=O)OC21c2ccc(O)cc2Oc2cc(O)ccc21)C(=O)N[C@@H](CCCNC(=N)N)C(=O)N1C[C@@H](NC(=N)N)C[C@H]1C(=O)N1C[C@@H](NC(=N)N)C[C@H]1C(=O)N[C@@H](CCCNC(=N)N)C(=O)N[C@@H](CCCNC(=N)N)C(=O)N[C@@H](CCCNC(=N)N)C(=O)N[C@@H](CCCNC(=N)N)C(=O)N1C[C@@H](NC(=N)N)C[C@H]1C(=O)NCC(=O)NCC(=O)NCC(N)=O [peptide 4, FAM-β-Ala-(L-Arg)2-(L-Pro^Gu)2-(L-Arg)4-L-Pro^Gu-(Gly)3-NH2] ({5FAM-βAla}-RR[Pro(cis-4-guanidino)][Pro(cis-4-guanidino)]RRRR[Pro(cis-4-guanidino)]GGG-NH2)				
	N=C(N)NCCC[C@H](NC(=O)CCNC(=O)c1ccc2c(c1)C(=O)OC21c2ccc(O)cc2Oc2cc(O)ccc21)C(=O)N[C@@H](CCCNC(=N)N)C(=O)N1C[C@@H](N)C[C@H]1C(=O)N[C@@H](CCCNC(=N)N)C(=O)N[C@@H](CCCNC(=N)N)C(=O)N1C[C@@H](N)C[C@H]1C(=O)N[C@@H](CCCNC(=N)N)C(=O)N[C@@H](CCCNC(=N)N)C(=O)N1C[C@@H](N)C[C@H]1C(=O)NCC(=O)NCC(=O)NCC(N)=O [peptide 2, FAM-β-Ala-(L-Arg-L-Arg-L-Pro^NH2)3-(Gly)3-NH2] ({5FAM-βAla}-RR[Pro(4S-NH2)]RR[Pro(4S-NH2)]RR[Pro(4S-NH2)]GGG-NH2)	more chemically stable than R9 and peptide 1			
	N=C(N)NCCC[C@H](NC(=O)CCNC(=O)c1ccc2c(c1)C(=O)OC21c2ccc(O)cc2Oc2cc(O)ccc21)C(=O)N[C@@H](CCCNC(=N)N)C(=O)N1CCC[C@H]1C(=O)N[C@@H](CCCNC(=N)N)C(=O)N[C@@H](CCCNC(=N)N)C(=O)N1CCC[C@H]1C(=O)N[C@@H](CCCNC(=N)N)C(=O)N[C@@H](CCCNC(=N)N)C(=O)N1CCC[C@H]1C(=O)NCC(=O)NCC(=O)NCC(N)=O [peptide 1, FAM-β-Ala-(L-Arg-L-Arg-L-Pro)3-(Gly)3-NH2] (HELM PEPTIDE1{[O=C1OC2(c3ccc(O)cc3Oc3cc(O)ccc32)c2ccc(C(=O)[*:2])cc21].[bAla].R.R.P.R.R.P.R.R.P.G.G.G.[am]}$$$$V2.0)	sharply fell as the pre-incubation time increased			
more stable than R9	N=C(N)NCCC[C@H](NC(=O)CCNC(=O)c1ccc2c(c1)C(=O)OC21c2ccc(O)cc2Oc2cc(O)ccc21)C(=O)N[C@@H](CCCNC(=N)N)C(=O)N1C[C@@H](NC(=N)N)C[C@H]1C(=O)N[C@@H](CCCNC(=N)N)C(=O)N[C@@H](CCCNC(=N)N)C(=O)N1C[C@@H](NC(=N)N)C[C@H]1C(=O)N[C@@H](CCCNC(=N)N)C(=O)N[C@@H](CCCNC(=N)N)C(=O)N1C[C@@H](NC(=N)N)C[C@H]1C(=O)NCC(=O)NCC(=O)NCC(N)=O [peptide 3, FAM-β-Ala-(L-Arg-L-Arg-L-Pro^Gu)3-(Gly)3-NH2] ({5FAM-βAla}-RR[Pro(cis-4-guanidino)]RR[Pro(cis-4-guanidino)]RR[Pro(cis-4-guanidino)]GGG-NH2)	more chemically stable than R9 and peptide 1; also recorded: remained stable in the medium containing FBS			

Compound	stability in culture medium / cellular environment, as concluded from the uptake time course (HeLa cells [1])	cell-penetrating ability and stability after pre-incubation in medium (in words) [2]	effect of endocytosis inhibitors on uptake (in words) (HeLa cells [3])	endosomal escape / localization (in words) (HeLa cells [4])	cellular uptake over incubation time (in words) (HeLa cells [1]; medium containing FBS, flow cytometry, three independent cultures)
nona-arginine [R9, reference compound]	unstable	sharply fell as the pre-incubation time increased	decreased by treatment with amiloride or sucrose	co-localized with the late endosomes/lysosomes	gradually decreased after 1-hr incubation
